Experimental data taken from US6737383B1, “Herbicidal oxadiazolidines” (priority 1999, dated 2004).

Legend:
[1] = tested on: crabgrass; test: Test B pre/postemergence crabgrass; assay type: in vivo, Digitaria sanguinalis
Procedure, shortened: (§1)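 Response is a visual 0-to-10 score relative to untreated plants, where 0 means no effect and 10 means complete control, taken twelve to sixteen days after application. Treatments went onto soil at planting and onto foliage of 1- to 4-leaf plants, using a surfactant-containing non-phytotoxic solvent.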

[2] = tested on: bamyardgrass; test: Test B flood test barnyardgrass; assay type: in vivo, Echinochloa crus-galli
Procedure, shortened: (§2)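 Each value is a visual injury score relative to controls, with 10 meaning complete control and 0 no effect. Evaluation took place twelve to sixteen days after the 2-leaf-stage plants were treated and kept in the greenhouse.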

[3] = tested on: blackgrass; test: Test B pre/postemergence blackgrass; assay type: in vivo, Alopecurus myosuroides
Procedure, shortened: as §1

[4] = tested on: rice; test: Test B flood test rice; assay type: in vivo, Oryza sativa
Procedure, shortened: as §2

[5] = tested on: wild oat; test: Test B pre/postemergence wild oat; assay type: in vivo, Avena fatua
Procedure, shortened: as §1

[6] = tested on: morningglory; test: Test B pre/postemergence morningglory; assay type: in vivo, Ipomoea hederacea
Procedure, shortened: as §1

[7] = tested on: smallflower flatsedge; test: Test B flood test smallflower flatsedge; assay type: in vivo, Cyperus difformis
Procedure, shortened: as §2

[8] = tested on: bedstraw; test: Test B pre/postemergence bedstraw; assay type: in vivo, Galium aparine
Procedure, shortened: as §1

[9] = tested on: soybean; test: Test B pre/postemergence soybean; assay type: in vivo, Glycine max
Procedure, shortened: as §1

[10] = tested on: pigweed; test: Test B pre/postemergence pigweed; assay type: in vivo, Amaranthus retroflexus
Procedure, shortened: as §1

[11] = tested on: corn; test: Test B pre/postemergence corn; assay type: in vivo, Zea mays
Procedure, shortened: as §1

[12] = tested on: wheat; test: Test B pre/postemergence wheat; assay type: in vivo, Triticum aestivum
Procedure, shortened: as §1

[13] = tested on: velvetleaf; test: Test B pre/postemergence velvetleaf; assay type: in vivo, Abutilon theophrasti
Procedure, shortened: as §1

[14] = tested on: giant foxtail; test: Test B pre/postemergence giant foxtail; assay type: in vivo, Setaria faberii
Procedure, shortened: as §1

[15] = tested on: surinam grass; test: Test B pre/postemergence surinam grass; assay type: in vivo, Brachiaria decumbens
Procedure, shortened: as §1

[16] = tested on: cocklebur; test: Test B pre/postemergence cocklebur; assay type: in vivo, Xanthium strumarium
Procedure, shortened: as §1

[17] = Postemergence, Rate 62 g/ha, scale 0 to 10, 0 is no effect, 10 is complete control
[18] = Postemergence, Rate 250 g/ha, scale 0 to 10, 0 no effect, 10 complete control
[19] = Preemergence, Rate 62 g/ha, scale 0 to 10 (0 no effect, 10 complete control)
[20] = Preemergence, Rate 125 g/ha, scale 0 to 10 (0 no effect, 10 complete control)
[21] = Preemergence, Rate 250 g/ha, scale of 0 to 10 where 0 is no effect and 10 is complete control
[22] = Preemergence, Rate 500 g/ha, scale 0 (no effect) to 10 (complete control)
[23] = Rate 125 g/ha, Postemergence, scale 0 to 10, 0 no effect, 10 complete control
[24] = Rate 500 g/ha, Postemergence, scale 0 to 10, 0 no effect, 10 complete control
[25] = Rate 31 g/ha, Postemergence section (flood test species), scale 0 to 10
[26] = Rate 125 g/ha, Postemergence section (flood test species), scale 0 to 10, 0 no effect, 10 complete control
[27] = Rate 250 g/ha, headed Pre-emergence (flood test species), scale 0 to 10 (0 no effect, 10 complete control)
[28] = Rate 500 g/ha, headed Pre-emergence (flood test species), scale 0 to 10 (0 no effect, 10 complete control)
[29] = Rate 1000 g/ha, Pre-emergence (as headed), scale 0 to 10
[30] = flood test, listed under Postemergence, Rate 250 g/ha, scale 0 to 10, 0 no effect, 10 complete control
[31] = Rate 2000 g/ha, Pre-emergence (as headed), scale 0 to 10

Cc1ccccc1Cn1c(=O)on(C(=O)N(c2ccc(F)cc2F)C(C)C)c1=O [Compound 87]
9: Crabgrass plant response rating [1, 24] | Morningglory plant response rating [6, 24] | Plant response rating, Giant foxtail [14, 20]
4: Blackgrass plant response rating [3, 24] | Plant response rating, Wild oats [5, 21] | Morningglory plant response rating [6, 17] | Bedstraw plant response rating [8, 23] | Soybean plant response rating [9, 22] | Redroot pigweed plant response rating [10, 19] | Plant response rating, Redroot pigweed [10, 20] | Plant response rating, B. signalgrass [15, 21]
0: Barnyardgrass plant response rating [2, 17] | Barnyardgrass plant response rating [2, 25] | Barnyardgrass plant response rating [2, 26] | Barnyardgrass plant response rating [2, 27] | Plant response rating, Barnyardgrass [2, 28] | Barnyardgrass plant response rating [2, 29] | Barnyardgrass plant response rating ([2]; Rate 2000 g/ha, Pre-emergence (as headed), scale 0 to 10, 0 no effect, 10 complete control) | Barnyardgrass plant response rating [2, 30] | Blackgrass plant response rating [3, 17] | Blackgrass plant response rating [3, 23] | Rice plant response rating [4, 17] | Rice plant response rating [4, 25] | Rice plant response rating [4, 26] | Rice plant response rating [4, 27] | Plant response rating, Rice [4, 28] | Rice plant response rating [4, 29] | Rice plant response rating [4, 31] | Rice plant response rating [4, 30] | Wild oats plant response rating [5, 17] | Wild oats plant response rating [5, 18] | Wild oats plant response rating [5, 19] | Plant response rating, Wild oats [5, 20] | Wild oats plant response rating [5, 23] | Morningglory plant response rating [6, 19] | Plant response rating, Morningglory [6, 20] | Plant response rating, Morningglory [6, 21] | Morningglory plant response rating [6, 22] | S. Flatsedge plant response rating [7, 17] | S. Flatsedge plant response rating ([7]; Pre-emergence, Rate 1000 g/ha, scale 0 to 10 (0 no effect, 10 complete control)) | S. Flatsedge plant response rating [7, 26] | S. Flatsedge plant response rating [7, 27] | Plant response rating, S. Flatsedge [7, 28] | S. Flatsedge plant response rating [7, 31] | S. Flatsedge plant response rating [7, 30] | Bedstraw plant response rating [8, 19] | Plant response rating, Bedstraw [8, 20] | Plant response rating, Bedstraw [8, 21] | Soybean plant response rating [9, 19] | Plant response rating, Soybean [9, 20] | Plant response rating, Soybean [9, 21] | Redroot pigweed plant response rating [10, 17] | Redroot pigweed plant response rating [10, 23] | Corn plant response rating [11, 17] | Corn plant response rating [11, 18] | Corn plant response rating [11, 19] | Plant response rating, Corn [11, 20] | Plant response rating, Corn [11, 21] | Corn plant response rating [11, 23] | Wheat plant response rating [12, 17] | Wheat plant response rating [12, 18] | Wheat plant response rating [12, 19] | Plant response rating, Wheat [12, 20] | Plant response rating, Wheat [12, 21] | Wheat plant response rating [12, 22] | Wheat plant response rating [12, 23] | Velvetleaf plant response rating [13, 17] | Velvetleaf plant response rating [13, 18] | Velvetleaf plant response rating [13, 19] | Plant response rating, Velvetleaf [13, 20] | Velvetleaf plant response rating [13, 22] | Velvetleaf plant response rating [13, 23] | Giant foxtail plant response rating [14, 17] | B. signalgrass plant response rating [15, 17] | B. signalgrass plant response rating [15, 18] | B. signalgrass plant response rating [15, 19] | B. signalgrass plant response rating [15, 23] | Cocklebur plant response rating [16, 17] | Cocklebur plant response rating [16, 19] | Plant response rating, Cocklebur [16, 20] | Plant response rating, Cocklebur [16, 21] | Cocklebur plant response rating [16, 22]
10: Plant response rating, Crabgrass [1, 21] | Crabgrass plant response rating [1, 22] | Redroot pigweed plant response rating [10, 22] | Plant response rating, Giant foxtail [14, 21] | Giant foxtail plant response rating [14, 22]
5: Crabgrass plant response rating [1, 18] | Crabgrass plant response rating [1, 19] | Plant response rating, Blackgrass [3, 21] | Soybean plant response rating [9, 24] | Redroot pigweed plant response rating [10, 18] | B. signalgrass plant response rating [15, 22]
2: Crabgrass plant response rating [1, 17] | Blackgrass plant response rating [3, 19] | Bedstraw plant response rating [8, 17] | Soybean plant response rating [9, 17] | Soybean plant response rating [9, 18] | Soybean plant response rating [9, 23] | Redroot pigweed plant response rating [10, 24] | Corn plant response rating [11, 22] | Corn plant response rating [11, 24] | Wheat plant response rating [12, 24] | Giant foxtail plant response rating [14, 23] | Plant response rating, B. signalgrass [15, 20] | B. signalgrass plant response rating ([15]; Rate 500 g/ha, Postemergence, scale of 0 to 10 where 0 is no effect and 10 is complete control) | Cocklebur plant response rating [16, 18] | Cocklebur plant response rating [16, 24]
1: Blackgrass plant response rating [3, 18] | Velvetleaf plant response rating [13, 24] | Cocklebur plant response rating [16, 23]
7: Blackgrass plant response rating [3, 22] | Morningglory plant response rating [6, 18] | Morningglory plant response rating [6, 23]
6: Bedstraw plant response rating [8, 18] | Giant foxtail plant response rating [14, 24]
3: Crabgrass plant response rating [1, 23] | Plant response rating, Blackgrass [3, 20] | Wild oats plant response rating [5, 22] | Wild oats plant response rating [5, 24] | Bedstraw plant response rating [8, 22] | Plant response rating, Velvetleaf [13, 21] | Giant foxtail plant response rating [14, 18]
8: Plant response rating, Crabgrass [1, 20] | Bedstraw plant response rating [8, 24] | Plant response rating, Redroot pigweed [10, 21] | Giant foxtail plant response rating [14, 19]
